Values of other authors, collected in US20210393559A1, “Compositions and Methods of Use of Beta-Hydroxy-Beta-methylbutyrate (HMB) for Improving Muscle Mass, Strength and Muscular Function Without Exercise” (Metabolic Technologies, LLC, priority 2020, published 2021).

Legend:
[1] = healthy young or old adults
[2] = after HMB is fed
[3] = molecular target: T1, 1-alpha, 25-Vitamin D hydroxylase (Homo sapiens, UniProt O15528); settings: human vascular smooth muscle
T1 sequence (O15528 1-508): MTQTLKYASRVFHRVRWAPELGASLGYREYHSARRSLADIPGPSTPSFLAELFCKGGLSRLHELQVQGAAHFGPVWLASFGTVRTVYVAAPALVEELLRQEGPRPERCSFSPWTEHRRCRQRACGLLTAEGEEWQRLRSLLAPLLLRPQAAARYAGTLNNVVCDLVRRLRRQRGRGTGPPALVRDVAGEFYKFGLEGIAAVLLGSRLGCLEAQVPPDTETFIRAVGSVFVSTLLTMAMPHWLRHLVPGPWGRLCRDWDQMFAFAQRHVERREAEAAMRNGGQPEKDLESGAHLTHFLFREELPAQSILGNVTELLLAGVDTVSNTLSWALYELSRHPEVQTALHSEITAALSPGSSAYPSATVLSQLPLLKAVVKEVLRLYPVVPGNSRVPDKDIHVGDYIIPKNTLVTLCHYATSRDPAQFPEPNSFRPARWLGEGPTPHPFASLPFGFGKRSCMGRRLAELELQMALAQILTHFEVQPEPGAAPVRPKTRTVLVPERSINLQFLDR

| Compound | side effects [1] | loss of HMB to urine [2] | Km [3] [ng/mL] |
| --- | --- | --- | --- |
| β-hydroxy-β-methylbutyrate [HMB] | no side effects | 20-50% | – |
| C=C1CC[C@H](O)C/C1=C/C=C1\CCC[C@]2(C)[C@@H]([C@H](C)CCCC(C)(C)O)CC[C@@H]12 [25OH-VitD3] | – | – | 25 |
